Results taken from patent US20220009967A1, “Isolation and Semi-Synthesis of Rufomycin Analogs” (THE BOARD OF TRUSTEES OF THE UNIVERSITY OF ILLINOIS, priority 2020, published 2022).
≈ marks a conversion by molar mass, not a printed value. Like-named read-outs stand apart in the source and are kept apart here.

How the values were obtained:
M. tuberculosis = assay: MIC against M. tuberculosis, microplate Alamar Blue assay (MABA); type: cell-based, Mycobacterium tuberculosis; set-up: MIC90: unit not given beside the values; conditions: for MIC90: MABA, Table 3, unit not given
Experimental: MICs against M. tuberculosis. The MIC was defined as the minimum concentration of the compound required to achieve a reduction in fluorescence by 90% relative to the untreated bacterial controls. The anti-TB activity was determined by the microplate Alamar Blue assay (MABA) as previously described (Choules et al., Antimicrob. Agents Chemother. 2019, 63, e02204-02218).

Mycobacterial ClpC1-NTD = target: T1, Mycobacterial ClpC1-NTD (Mycobacterium tuberculosis, UniProt P9WPC9); assay: SPR binding affinity to ClpC1-NTD
T1 construct: caseinolytic protein C1 (ClpC1) N-terminal domain (NTD)
Experimental: (§1) Analysis of binding affinity to Mycobacterial ClpC1-NTD and FL by SPR. SPR binding assay was performed using a previously reported method (Choules et al., Antimicrob. Agents Chemother. 2019, 63, e02204-02218; Wolf et al., ACS Infect. Dis. 2019, 5, 829-840). Kinetic rate constants (ka and kd) were determined by fitting the double-reference data globally to the 1:1 Langmuir model embedded in the Biacore T200 evaluation software (v3.0). KD values were then calculated from the two rate constants (KD=kd/ka). Smaller KD values represent tighter binding affinities.

Mycobacterial ClpC1 FL = target: T2, Mycobacterial ClpC1 FL (Mycobacterium tuberculosis, UniProt P9WPC9); assay: SPR binding affinity to ClpC1 full-length protein (FL)
T2 construct: N-terminal domain (NTD) and the full-length protein (FL) by surface plasmon resonance (SPR)
Experimental: as §1

[1] = ClpC1 N-terminal domain, KD=kd/ka, Table 1, read-out: SPR KD NTD
[2] = ClpC1 full-length protein, KD=kd/ka, Table 1, read-out: SPR KD FL

T2 sequence (P9WPC9 whole entry, the tested form may be a part): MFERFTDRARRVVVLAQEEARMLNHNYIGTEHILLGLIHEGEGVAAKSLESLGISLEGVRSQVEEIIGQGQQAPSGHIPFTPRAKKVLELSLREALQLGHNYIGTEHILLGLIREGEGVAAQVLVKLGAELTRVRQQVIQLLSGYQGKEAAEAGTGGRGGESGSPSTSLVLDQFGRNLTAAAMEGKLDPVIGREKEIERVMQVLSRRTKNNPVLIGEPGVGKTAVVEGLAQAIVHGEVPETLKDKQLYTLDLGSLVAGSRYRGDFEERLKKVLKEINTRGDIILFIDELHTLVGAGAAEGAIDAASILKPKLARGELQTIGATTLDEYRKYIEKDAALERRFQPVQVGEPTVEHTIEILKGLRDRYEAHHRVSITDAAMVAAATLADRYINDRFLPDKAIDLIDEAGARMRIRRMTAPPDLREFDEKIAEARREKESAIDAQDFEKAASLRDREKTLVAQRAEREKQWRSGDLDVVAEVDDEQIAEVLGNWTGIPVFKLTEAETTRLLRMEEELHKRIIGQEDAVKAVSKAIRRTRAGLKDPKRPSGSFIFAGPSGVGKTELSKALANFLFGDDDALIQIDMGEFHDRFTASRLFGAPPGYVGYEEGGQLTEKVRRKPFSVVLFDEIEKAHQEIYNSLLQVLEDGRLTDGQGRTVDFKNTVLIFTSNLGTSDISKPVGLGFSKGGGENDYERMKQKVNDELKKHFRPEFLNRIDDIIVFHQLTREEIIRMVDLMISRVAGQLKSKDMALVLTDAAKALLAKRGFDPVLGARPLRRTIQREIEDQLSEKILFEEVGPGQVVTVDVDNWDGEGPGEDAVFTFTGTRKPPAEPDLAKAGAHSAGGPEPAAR

SMILES | MIC (M. tuberculosis; Mycobacterium tuberculosis) | Kd (Mycobacterial ClpC1-NTD; [1]) | Kd (Mycobacterial ClpC1 FL; [2]) | also measured
C/C=C/C[C@@H]1NC(=O)[C@H](CC(C)C)N2C=C(C)C[C@@H](C2=O)N(C)C(=O)[C@H](C)NC(=O)[C@H](Cc2ccc(O)c([N+](=O)[O-])c2)NC(=O)[C@H](CC(C)C)N(C)C(=O)[C@H](Cc2cn(C(C)(C)[C@H](O)CCl)c3ccccc23)NC1=O [Compound 3] | 0.0188 ± 0.004 µM (≈ 0.0199 µg/mL) | 82.3 nM | 97.1 nM | –
C/C=C/C[C@@H]1NC(=O)[C@H](CC(C)C)N2C(=O)[C@H](CC(C)[C@H]2OC)N(C)C(=O)[C@H](C)NC(=O)[C@H](Cc2ccc(O)c([N+](=O)[O-])c2)NC(=O)[C@H](CC(C)C)N(C)C(=O)[C@H](Cc2cn(C(C)(C)[C@H](O)COC)c3ccccc23)NC1=O (some centres unmarked) [Compound 4] | 0.0064 ± 0.0018 µM (≈ 0.00697 µg/mL) | 88.5 nM | 79.9 nM | –
C/C=C/C[C@@H]1NC(=O)[C@H](CC(C)C)N2C(=O)[C@H](CC(C)[C@H]2OC)N(C)C(=O)[C@H](C)NC(=O)[C@H](Cc2ccc(O)c([N+](=O)[O-])c2)NC(=O)[C@H](CC(C)C)N(C)C(=O)[C@H](Cc2cn(C(C)(C)[C@H](O)CCl)c3ccccc23)NC1=O (some centres unmarked) [Compound 5] | – | 123 nM | 163 nM | –
C/C=C/C[C@@H]1NC(=O)[C@H](CC(C)C)N2C(=O)[C@H](CC(C)[C@H]2OC)N(C)C(=O)[C@H](C)NC(=O)[C@H](Cc2ccc(O)c([N+](=O)[O-])c2)NC(=O)[C@H](CC(C)C)N(C)C(=O)[C@H](Cc2cn(C(C)(C)[C@H]3CO3)c3ccccc23)NC1=O (some centres unmarked) [Compound 6] | – | 103 nM | 31.7 nM | increase in activity compared to rufomycin analogues 1 and 2 (M. tuberculosis; MIC ratio, in words): ten-fold increase in activity; MIC (M. tuberculosis; text summary of Table 1, unit not given): 1.9
C/C=C/C[C@@H]1NC(=O)[C@H](CC(C)C)N2C(=O)[C@H](CC(C)[C@H]2O)N(C)C(=O)[C@H](C)NC(=O)[C@H](Cc2ccc(O)c([N+](=O)[O-])c2)NC(=O)[C@H](CC(C)C)N(C)C(=O)[C@H](Cc2cn(C(C)(C)[C@H](O)CCl)c3ccccc23)NC1=O (some centres unmarked) [Compound 7] | 0.0464 ± 0.0046 µM (≈ 0.0501 µg/mL) | 114 nM | 116 nM | –
C/C=C/C[C@@H]1NC(=O)[C@H](CC(C)C)N2C(=O)[C@H](CC(C)[C@H]2OCC)N(C)C(=O)[C@H](C)NC(=O)[C@H](Cc2ccc(O)c([N+](=O)[O-])c2)NC(=O)[C@H](CC(C)C)N(C)C(=O)[C@H](Cc2cn(C(C)(C)[C@H](O)CCl)c3ccccc23)NC1=O (some centres unmarked) [Compound 8] | 0.244 ± 0.0271 µM (≈ 0.27 µg/mL) | 120 nM | 142 nM | –
C/C=C/C[C@@H]1NC(=O)[C@H](CC(C)C)N2C(=O)[C@H](CC(C)[C@H]2OCCC)N(C)C(=O)[C@H](C)NC(=O)[C@H](Cc2ccc(O)c([N+](=O)[O-])c2)NC(=O)[C@H](CC(C)C)N(C)C(=O)[C@H](Cc2cn(C(C)(C)[C@H](O)CCl)c3ccccc23)NC1=O (some centres unmarked) [Compound 10] | 0.75 ± 0.0107 µM (≈ 0.84 µg/mL) | 90.7 nM | 143 nM | –
C/C=C/C[C@@H]1NC(=O)[C@H](CC(C)C)N2C=C(C)C[C@@H](C2=O)N(C)C(=O)[C@H](C)NC(=O)[C@H](Cc2ccc(OC(C)=O)c([N+](=O)[O-])c2)NC(=O)[C@H](CC(C)C)N(C)C(=O)[C@H](Cc2cn(C(C)(C)[C@H](O)CCl)c3ccccc23)NC1=O [Compound 15] | 0.0224 µM (≈ 0.0247 µg/mL) | 317 nM | 513 nM | –
C/C=C/C[C@@H]1NC(=O)[C@H](CC(C)C)N2C=C(C)C[C@@H](C2=O)N(C)C(=O)[C@H](C)NC(=O)[C@H](Cc2ccc(OC)c([N+](=O)[O-])c2)NC(=O)[C@H](CC(C)C)N(C)C(=O)[C@H](Cc2cn(C(C)(C)[C@H]3CO3)c3ccccc23)NC1=O [Compound 16] | 0.0726 µM (≈ 0.0754 µg/mL) | 580 nM | 883 nM | –
C/C=C/C[C@@H]1NC(=O)[C@H](CC(C)C)N2C=C(C)C[C@@H](C2=O)N(C)C(=O)[C@H](C)NC(=O)[C@H](Cc2ccc(OC(=O)c3ccccc3)c([N+](=O)[O-])c2)NC(=O)[C@H](CC(C)C)N(C)C(=O)[C@H](Cc2cn(C(C)(C)[C@H](O)CCl)c3ccccc23)NC1=O [Compound 17] | 0.0529 µM (≈ 0.0616 µg/mL) | – | – | Kd (Mycobacterial ClpC1-NTD): 1250 nM; Kd (Mycobacterial ClpC1 FL): 2030 nM
C/C=C/C[C@@H]1NC(=O)[C@H](CC(C)C)N2C=C(C)C[C@@H](C2=O)N(C)C(=O)[C@H](C)NC(=O)[C@H](Cc2ccc(O)c(N)c2)NC(=O)[C@H](CC(C)C)N(C)C(=O)[C@H](Cc2cn(C(C)(C)[C@H](O)CCl)c3ccccc23)NC1=O [Compound 19] | 0.887 µM (≈ 0.914 µg/mL) | 501 nM | 319 nM | –
C/C=C/C[C@@H]1NC(=O)[C@H](CC(C)C)N2C=C(C)C[C@@H](C2=O)N(C)C(=O)[C@H](C)NC(=O)[C@H](Cc2ccc3c(c2)N=C(C)CC(C)(C)O3)NC(=O)[C@H](CC(C)C)N(C)C(=O)[C@H](Cc2cn(C(C)(C)[C@H](O)CCl)c3ccccc23)NC1=O [Compound 20] | 0.782 µM (≈ 0.869 µg/mL) | 196 nM | 234 nM | –
C/C=C/C[C@@H]1NC(=O)[C@H](CC(C)C)N2C(=O)[C@H](CC(C)[C@H]2OC)N(C)C(=O)[C@H](C)NC(=O)[C@H](Cc2ccc(OC)c([N+](=O)[O-])c2)NC(=O)[C@H](CC(C)C)N(C)C(=O)[C@H](Cc2cn(C(C)(C)[C@H]3CO3)c3ccccc23)N(C)C1=O (some centres unmarked) [Compound 24] | 0.0646 µM (≈ 0.07 µg/mL) | 451 nM | 513 nM | –
C/C=C/C[C@@H]1NC(=O)[C@H](CC(C)C)N2C(=O)[C@H](CC(C)[C@H]2O)N(C)C(=O)[C@H](C)NC(=O)[C@H](Cc2ccc(OC(C)=O)c([N+](=O)[O-])c2)NC(=O)[C@H](CC(C)C)N(C)C(=O)[C@H](Cc2cn(C(C)(C)[C@H]3CO3)c3ccccc23)NC1=O (some centres unmarked) [Compound 25] | 0.0184 ± 0.006 µM (≈ 0.02 µg/mL) | 56 nM | 72.5 nM | –
C/C=C/C[C@@H]1NC(=O)[C@H](CC(C)C)N2C(=O)[C@H](CC(C)[C@H]2OC(C)=O)N(C)C(=O)[C@H](C)NC(=O)[C@H](Cc2ccc(OC(C)=O)c([N+](=O)[O-])c2)NC(=O)[C@H](CC(C)C)N(C)C(=O)[C@H](Cc2cn(C(C)(C)[C@H]3CO3)c3ccccc23)NC1=O (some centres unmarked) [Compound 26] | 0.0089 ± 0.0036 µM (≈ 0.01 µg/mL) | 33.8 nM | 16 nM | –
C/C=C/C[C@@H]1NC(=O)[C@H](CC(C)C)N2C(=O)[C@H](CC(C)[C@H]2O)N(C)C(=O)[C@H](C)NC(=O)[C@H](Cc2ccc(OC)c([N+](=O)[O-])c2)NC(=O)[C@H](CC(C)C)N(C)C(=O)[C@H](Cc2cn(C(C)(C)[C@H]3CO3)c3ccccc23)NC1=O (some centres unmarked) [Compound 29] | 0.0543 µM (≈ 0.0574 µg/mL) | 117 nM | 133 nM | –
C/C=C/C[C@@H]1NC(=O)[C@H](CC(C)C)N2C(=O)[C@H](CC(C)[C@H]2OC)N(C)C(=O)[C@H](C)NC(=O)[C@H](Cc2ccc(OC)c([N+](=O)[O-])c2)NC(=O)[C@H](CC(C)C)N(C)C(=O)[C@H](Cc2cn(C(C)(C)[C@H]3CO3)c3ccccc23)NC1=O (some centres unmarked) [Compound 30] | 0.0058 µM (≈ 0.00621 µg/mL) | 55.5 nM | 75.1 nM | –
NNC(=O)c1ccncc1 [INH, isoniazid, reference compound] | – | – | – | MIC90 (M. tuberculosis): 463
CO[C@H]1/C=C/O[C@@]2(C)Oc3c(C)c(O)c4c(O)c(c(/C=N/N5CCN(C)CC5)c(O)c4c3C2=O)NC(=O)/C(C)=C\C=C\[C@H](C)[C@H](O)[C@@H](C)[C@@H](O)[C@@H](C)[C@H](OC(C)=O)[C@@H]1C [RMP, rifampin, reference compound] | – | – | – | MIC90 (M. tuberculosis): 28
